The values below come from BindingDB's records for PubMed 32771797 (Southern Medical University, 2020).

The assay is described as follows: Inhibition of Severe acute respiratory syndrome coronavirus 2 MPro incubated for 24 hrs by plaque assay.

In turn, `O=C[C@H](C[C@@H]1CCNC1=O)NC(=O)[C@H](Cc1cccc(F)c1)NC(=O)c1cc2ccccc2[nH]1` [med.21724, Compound 62] gave an EC50 of 720 nM. That is a sub-micromolar value.

The term EC50 denotes the concentration at which the effect is half-maximal. A low value points to higher potency in that assay.
